Data from publication PMC8111499, “GW117: A novel serotonin (5‐HT2C) receptor antagonist and melatonin (MT1/MT2) receptor agonist with potential antidepressant‐like activity in rodents” (CNS Neuroscience & Therapeutics, 2021).

Key:
[1] = molecular target: T1, MT2 receptor (Homo sapiens, UniProt P49286); assay: [35S]‐GTPγS binding assay, MT2; type: biochemical; details: [35S]‐GTPγS binding; read-out: maximal increase over basal binding (% Emax), MT2 receptor
T1 construct: purchased Perkin‐Elmer ES‐621
T1 sequence (P49286 1-362): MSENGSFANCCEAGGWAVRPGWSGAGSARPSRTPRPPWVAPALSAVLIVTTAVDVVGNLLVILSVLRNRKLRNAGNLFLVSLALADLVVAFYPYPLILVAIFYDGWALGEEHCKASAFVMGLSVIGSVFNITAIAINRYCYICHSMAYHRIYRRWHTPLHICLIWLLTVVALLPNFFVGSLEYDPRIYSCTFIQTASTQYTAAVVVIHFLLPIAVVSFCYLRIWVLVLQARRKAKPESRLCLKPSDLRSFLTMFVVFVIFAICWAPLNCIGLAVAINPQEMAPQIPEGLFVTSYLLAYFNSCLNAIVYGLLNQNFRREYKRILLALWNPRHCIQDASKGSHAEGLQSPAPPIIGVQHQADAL
Experimental: (§1) This experiment was mentioned earlier. ^27 In short, HEK293 cell membrane stably expressing human 5‐HT2C receptors or rat hippocampal tissue membrane or MT1/MT2 receptors was re‐suspended in buffer (50 mmol/L Tris, 100 mmol/L NaCl, 5 mmol/L MgCl2·6H2O, 0.1 mmol/L EDTA‐Na2·6H2O, 0.2 mmol/L EGTA, pH 7.4) and incubated with the test compound (100 μM GDP, 0.2 nM [^35S]‐GTP, or [^3H]PIP) for 60 min at 28℃. At the end of the experiment, Whatman GF/C filters pre‐soaked with distilled water were used for rapid filtration followed by washing with 5 ml of ice‐cold Tris buffer. Determination of non‐specific binding in the presence of GTPγS and radioactivity was measured by liquid scintillation counting. Calculation of the concentration produces a half‐maximal effect (EC50) and the maximal increase above the baseline value.

[2] = tested on: CUS rats; assay: Novelty‐suppressed feeding test in the CUS model; type: in vivo; details: chronic, 10 mg/kg
Experimental: In order to further examine the antidepressant effects of GW117, chronic unpredictable stress (CUS) model was utilized; the methods were as described before. ^29 , ^31 After 1 week of training, rats underwent sucrose training of 48 h. After training, a sucrose baseline test was performed. […] Gastric gavage was given 1 h before the stress (08:00–09:00). Except for the non‐stressed group, all rats were stimulated by a series of stressors. stress methods included the following: fast on food and water (24 h), moisture cage (150 g sawdust bedding in 200 ml water), overnight illumination, low‐intensity strobe illumination (100 flashes/min), forced swimming (5 min at 10℃), white noise (110 dB), tail pinch (1 cm from tail root, 6 min), 45℃ cage tilt, and restraint (1–2 h). Stressors need to be used continuously and randomly. Non‐stressed rats received free food and water, but were required to fast for 14 h before sucrose preference test. After 4 weeks of stress, the sucrose preference test (SPT) (on day 25), open field test (OFT) (on day 28), and novelty‐suppressed feeding (NSF) test (on day 29) were carried out. […]

[3] = molecular target: T2, MT1 receptor (Homo sapiens, UniProt P48039); assay: [35S]‐GTPγS binding assay, MT1; type: biochemical; details: [35S]‐GTPγS binding; read-out: maximal increase over basal binding (% Emax), MT1 receptor
T2 construct: purchased Perkin‐Elmer ES‐620
T2 sequence (P48039 whole entry): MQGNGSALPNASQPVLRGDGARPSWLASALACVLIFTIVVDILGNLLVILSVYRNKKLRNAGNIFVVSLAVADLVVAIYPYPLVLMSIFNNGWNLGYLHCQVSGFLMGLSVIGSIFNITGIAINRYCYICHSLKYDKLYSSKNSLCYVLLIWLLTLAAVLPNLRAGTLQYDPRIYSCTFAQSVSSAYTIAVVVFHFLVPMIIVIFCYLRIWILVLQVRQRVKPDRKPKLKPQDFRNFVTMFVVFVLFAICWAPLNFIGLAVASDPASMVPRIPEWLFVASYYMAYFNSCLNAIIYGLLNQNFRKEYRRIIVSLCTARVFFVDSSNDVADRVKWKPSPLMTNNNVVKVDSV
Experimental: as §1

[4] = tested on: rats; assay: Forced swimming test in rats; type: in vivo, Sprague Dawley (SD) rats; details: oral, 40 mg/kg
Experimental: The forced swimming test (FST) was conducted as described earlier. ^30 Eighty naive rats were randomized into eight treatment groups (n = 9‐12/group). All rats received a single drug administration (p.o.). The procedure consisted of two sessions, to be specific, a pre‐test session and a test session. A cylindrical container (diameter, 20 cm; height, 40 cm; including 30 cm of water and kept at 25℃) was used. During the pre‐test phase, rats were required to perform forced swimming for 15 min. The test session was performed 24 h later, put the rats in the same cylindrical container for 5 min and immobility duration over 5 min recorded. […] Rats were considered immobile when they entered a floating posture, specifically, immobile, passive, and with their heads above water.

[5] = tested on: mice; assay: Tail suspension test in mice; type: in vivo, ICR mice; details: oral, 10, 20 or 40 mg/kg, vs. vehicle
Experimental: The tail suspension test (TST) was conducted as described earlier. ^28 , ^29 Eighty naive mice were randomly divided into eight treatment groups (n = 10/group). All mice received a single dose of the drug (p.o.). After 60 min of gavage administration, mice were suspended from the top of the apparatus (25 × 25 × 35 cm) using tape about 1 cm from the tail tip. The duration of immobility was recorded in the last 4 min for a total of 6 min. When mice are passively suspended immobile, they are judged to be stationary.

[6] = molecular target: T3, 5‐HT2C receptor (Rattus norvegicus, UniProt P08909); assay: 5‐HT2C receptor binding assay ([3H]‐LSD competition); details: mean ± SEM, three independent experiments
T3 construct: 5‐HT2C receptor membrane protein was extracted from rat hippocampus and a stably transfected HEK293 cell line; from tissue; host or cells: rat hippocampus
T3 sequence (P08909 33-460): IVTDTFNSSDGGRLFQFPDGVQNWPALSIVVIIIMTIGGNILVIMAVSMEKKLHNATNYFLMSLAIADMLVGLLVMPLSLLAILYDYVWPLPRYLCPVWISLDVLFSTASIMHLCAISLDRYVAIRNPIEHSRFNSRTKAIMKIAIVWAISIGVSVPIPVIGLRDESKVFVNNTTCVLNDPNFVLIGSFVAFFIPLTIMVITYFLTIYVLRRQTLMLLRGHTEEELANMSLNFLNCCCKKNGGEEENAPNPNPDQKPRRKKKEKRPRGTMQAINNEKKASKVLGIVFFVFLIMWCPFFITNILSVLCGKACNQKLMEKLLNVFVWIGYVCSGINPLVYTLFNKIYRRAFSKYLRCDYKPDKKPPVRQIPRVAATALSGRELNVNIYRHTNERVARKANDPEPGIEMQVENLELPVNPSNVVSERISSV
Experimental: Hippocampal membrane preparations were obtained using previously described methods. ^24 , ^25 , ^26 Briefly, rats were decapitated and their brains were rapidly removed. Next, the hippocampus was dissected and subsequently homogenized in 40 volumes of ice‐cold buffer (50 mM Tris‐HCl Buffer, pH 7.4) and then centrifuged at 40,000 × g at 4°C for 10 min. The particles were re‐suspended and centrifuged again. In order to remove endogenous monoamines, the final suspension was incubated at 37°C for 20 min and then centrifuged as usual. The final pellets were frozen at −80°C at once for up to 1 week.
Human MT1/MT2 receptor membrane proteins were obtained from Perkin‐Elmer (ES‐620 [MT1] and ES‐621 [MT2]). The stably transfected 5‐HT2C receptor HEK293 cell line was prepared using a nucleus‐cytoplasm‐membrane preparation kit (Applagin Technologies Inc.). Briefly, cells were harvested at 4°C, 110 00 × g and centrifugation for 5 min. Homogenize pellets in the assay buffer (50 mM Tris‐HCl buffer containing 120 mM NaCl and 5 mM KCl, pH 7.4) and then centrifuged twice at 4°C, 36,000 × g for 15 min. […]
Receptor membrane protein, 5‐HT2C (50 μl), was added to all the tubes. Non‐specific binding was determined by the presence of unlabeled 10 μM 5‐HT and pre‐reacted for 30 min. […] Finally, 1 ml of scintillation fluid was added and the radioactive intensity measured by liquid scintillation counting.

[7] = tested on: mice; assay: Learned helplessness paradigm in mice; type: in vivo, ICR mice; details: sub‐chronic (4 days), 10 mg/kg ig., after inescapable shock training
Experimental: For 4 consecutive days, mice were putted into the shuttle box device (40 × 10 × 13 cm), the device was splited into two compartments, and mice could free access. In the IS group, each mouse received 360 inescapable shocks (current intensity 0.30 mA, duration 2 s, 3‐13 s variable interval, about 1 h) over four consecutive training days. Animals in the NIS group underwent the same handling without receiving the foot shocks. 10 trials were conducted on mice to screen helpless, each of which includes conditioned stimulation period (3‐s lamp on), non‐conditioned stimulation period (3‐s lamp +shock), and interval period (without any stimulus, 25 s). […] The EF values were balanced for each group in the experiment. Using Graphic State software (Coulbourn Instruments Inc.,) recorded the number of escape failures and the latency to escape.

[8] = design: method as in PMID 31657152; details: single dose; cited from earlier work

COc1ccc2cccc(CCNC(C)=O)c2c1 [Agomelatine, reference compound]
Emax [1]: 101 ± 4.56% | feeding latency in NSF test [2]: not effective | Emax [3]: 94 ± 7.34% | immobility time in FST [4]: significantly decreased the immobility time | immobility time in TST [5]: had no effect on immobility time | Ki [6]: 0.64 ± 0.25 nM

CNCCC(Oc1ccc(C(F)(F)F)cc1)c1ccccc1 (stereo not drawn) [Fluoxetine, reference compound]
deficit of avoidance behavior (escape latency and number of escape failures) [7]: significantly reversed the deficit of avoidance behavior

CNC1(c2ccccc2Cl)CCCCC1=O (stereo not drawn) [ketamine]
duration of rapid antidepressant response [8]: at least three | mean onset time of rapid antidepressant response [8]: four
